Source: BindingDB's records for doi:10.1021/ml5001867 (Abbvie, 2014)
pEC50: −log10 of the molar value.

Test: Inhibition of BCL-XL (unknown origin) expressed in mcl-1 deficient MEF assessed as induction of cell killing incubated for 48 hrs in presence of 10% FBS by Cell titerGlo reagent based assay

| Structure (SMILES) | pEC50 |
| --- | --- |
| O=C(Nc1nc2ccccc2s1)c1cccc2c1CN(c1nc(C(=O)O)c(CCCOc3ccc(-n4ncc5cncnc54)cc3)s1)CC2 | 7.22 |
| O=C(Nc1nc2ccccc2s1)c1cccc2c1CN(c1nc(C(=O)O)c(CCCOc3ccc(-n4cccn4)cc3)s1)CC2 | 6.19 |
| CN1CCN(CCCNc2ncnc3c2cnn3-c2ccc(OCCCc3sc(N4CCc5cccc(C(=O)Nc6nc7ccccc7s6)c5C4)nc3C(=O)O)cc2)CC1 | 7.70 |
| O=C(Nc1nc2ccccc2s1)c1cccc2c1CN(c1nc(C(=O)O)c(CCCCOc3ccc(-n4ncc5cncnc54)cc3)s1)CC2 | < 5.30 |
| CN(C)CCCNc1ncnc2c1cnn2-c1ccc(OCCCc2sc(N3CCc4cccc(C(=O)Nc5nc6ccccc6s5)c4C3)nc2C(=O)O)cc1 | 8.00 |
| O=C(Nc1nc2ccccc2s1)c1cccc2c1CN(c1nc(C(=O)O)c(CCCOc3cccc(-n4ncc5cncnc54)c3)s1)CC2 | < 5.30 |
| O=C(Nc1nc2ccccc2s1)c1cccc2c1CN(c1nc(C(=O)O)c(CCOc3cccc(-n4ncc5cncnc54)c3)s1)CC2 | < 5.30 |
| O=C(Nc1nc2ccccc2s1)c1cccc2c1CN(c1nc(C(=O)O)c(CCOc3ccc(-n4ncc5cncnc54)cc3)s1)CC2 | < 5.30 |
